According to the NIST ThermoML archive (doi:10.1021/acs.jced.7b00782):
Numbers after ± are expanded uncertainties.

Conditions: Closed cell (Static) method

| vapor or sublimation pressure (105.89 K, Crystal) [kPa] | vapor or sublimation pressure (135.8 K, Liquid) [kPa] | vapor or sublimation pressure (146.22 K, Liquid) [kPa] | Compound | vapor or sublimation pressure (105.89 K, Liquid) [kPa] | vapor or sublimation pressure (127.32 K, Liquid) [kPa] |
| --- | --- | --- | --- | --- | --- |
|  |  |  | [C-]#[O+] [carbon monoxide] | 830 ± 40 | 2682 ± 40 |
| 13.6 ± 20 | 410.9 ± 26 | 987.8 ± 30 | [N]=O [nitrogen oxide (NO)] |  | 188.3 ± 23 |
|  | 2605.6 ± 58 | 4028.9 ± 58 | [Ar] [argon] |  |  |
